Assay results reported in paper PMC7770833, “Design, Synthesis, and Biological Evaluation of a Series of Oxazolone Carboxamides as a Novel Class of Acid Ceramidase Inhibitors” (Journal of Medicinal Chemistry, 2020).

Experiments:
[1] = target: T1, human N-acylethanolamine acid amidase (hNAAA) (Homo sapiens, UniProt Q02083); test: Fluorogenic hNAAA assay; type: biochemical; conditions: at up to 125 μM
T1 construct: expressed in transfected cells; lysosome-enriched lysate
T1 sequence (Q02083 29-359): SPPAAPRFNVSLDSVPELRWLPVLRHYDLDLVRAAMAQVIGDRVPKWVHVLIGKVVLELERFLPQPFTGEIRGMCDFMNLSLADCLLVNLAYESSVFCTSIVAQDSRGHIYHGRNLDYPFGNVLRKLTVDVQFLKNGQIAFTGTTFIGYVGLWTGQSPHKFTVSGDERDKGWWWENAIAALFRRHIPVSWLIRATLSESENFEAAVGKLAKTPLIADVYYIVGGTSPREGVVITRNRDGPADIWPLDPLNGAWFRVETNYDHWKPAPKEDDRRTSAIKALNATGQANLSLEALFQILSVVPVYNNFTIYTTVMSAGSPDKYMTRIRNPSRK
Experimental: HEK-293 cells stably transfected with the hNAAA coding sequence cloned from a human spleen cDNA library (catalog no. 639124, Clontech, Mountain View, CA, USA) were used as the enzyme source. Cells were grown in DMEM containing 10% FBS, 1% glutamine, 1 mM sodium pyruvate, and 500 μg/mL G418. Cells were harvested and pellets were stored at −80 °C until lysosomal-enriched lysate preparation. Cells were suspended in 20 mM Tris HCl (pH 7.4) with 0.32 M sucrose, sonicated, and centrifuged at 800 × g for 30 min at 4 °C. Supernatants were then ultracentrifuged at 12 000 × g for 30 min at 4 °C. Pellets were re-suspended in PBS buffer (pH 7.4) and subjected to three freeze–thaw cycles at −80 °C. The suspension was finally ultracentrifuged at 105 000 × g for 1 h at 4 °C, supernatants were collected, protein concentration was measured, and samples aliquoted and stored at −80 °C until use.
The assay was run in 96-well microplates (Black OptiPlate-96 F; PerkinElmer, Massachusetts, USA) in a total reaction volume of 200 μL. hNAAA protein preparation (4.0 μg) was pre-incubated for 30 min with various concentrations of test compounds or vehicle control (DMSO 5%) in 100 mM citrate/phosphate buffer (pH 4.5) containing 3.0 mM dithiothreitol (DTT), 0.1% NP40 0.1%, 0.05% bovine serum albumin, and 150 mM NaCl. […]

[2] = In vitro microsomal stability study, human liver microsomes; type: in vitro ADME
Experimental: Freshly prepared 10 mM CH3CN stock solution of the test compound was pre-incubated at 37 °C for 15 min with mouse/human liver microsomes added 0.1 M Tris-HCl buffer (pH 7.4). The final concentration was 4.6 μM. After pre-incubation, the cofactors (NADPH, G6P, G6PDH, and MgCl2 pre-dissolved in 0.1 M Tris-HCl) were added to the incubation mixture and the incubation was continued at 37 °C for 1 h. At each time point (0, 5, 15, 30, and 60 min), 30 μL of the incubation mixture was diluted with 200 μL of cold CH3CN spiked with 200 nM of the internal standard, followed by centrifugation at 3300g for 15 min. The supernatant was further diluted with H2O (1:1) for analysis. The concentration of the test compound was quantified by LC/MS–MS on a Waters Acquity UPLC/MS TQD system consisting of TQD MS equipped with an ESI interface. The analyses were run on an Acquity UPLC BEH C18 (50 × 2.1 mm ID, particle size 1.7 μm) with a VanGuard BEH C18 pre-column (5 × 2.1 mm ID, particle size 1.7 μm) at 40 °C. For each compound, the appropriate mobile phase was chosen. ESI was applied in positive mode. The percentage of the test compound remaining at each time point relative to t = 0 was calculated. The t1/2 were determined by a one-phase decay equation using a nonlinear regression of the compound concentration versus time. […]

[3] = system: human neuroblastoma SH-SY5Y cells; test: Sphingolipid levels in SH-SY5Y cells (LC/MS); type: cell-based
Experimental: SH-SY5Y cells were purchased from Sigma Aldrich (Italy) and cultured in DMEM containing 10% FBS at 37 °C and 5% CO2. Drugs were dissolved in DMSO (10 mM) and diluted in cell culture medium with reduced serum (1%) for cell treatments.
Lipid extraction and SL measurements were performed as previously described.[59],[61],[75] Lipids were extracted with a CHCl3/MeOH mixture (2:1, 3 mL) spike with internal standards. The organic phase was collected, dried under N2, and dissolved in CHCl3/MeOH (1:3) for LC/MS analyses. Ceramides and sphingosine were analyzed by LC/MS/MS, using a Waters Acquity UPLC coupled to a Waters Xevo triple quadrupole mass spectrometer (TQMS) and interfaced with an ESI ion source. Separation was performed on a Waters Acquity BEH C18 1.7 μm column (2.1 × 50 mm) at 60 °C. A linear gradient of 0.1% HCOOH in CH3CN/i-PrOH (20:80) as solvent B in 0.1% HCOOH in CH3CN/H2O (20:80) as solvent A and was applied at a flow rate of 0.4 mL/min. The detection of SLs was performed in positive ion mode. Capillary voltage was 3.5 kV and cone voltage was 25 V. The source temperature and desolvation temperatures were set at 120 and 600 °C, respectively. Desolvation gas and cone gas (N2) flows were 800 and 20 L/h, respectively. Ceramides were identified by comparison of their LC retention times and MS/MS fragmentation patterns with those of authentic standards (Avanti Polar Lipids). Multiple reaction monitoring (MRM) ion chromatograms were used to quantify dihydroceramide (Cer(d18:0/16:0), Rt = 4.6 min, m/z: 540.5 > 522.5), palmitoyl ceramide (Cer(d18:1/16:0), Rt = 4.5 min, m/z: 520.3 > 264.2) sphingosine (So(d18:1), Rt = 2.6 min, m/z: 300.2 > 282.2), sphingomyelin (SM(d18:1/16:0), Rt = 4.2 min, m/z: 703.2 > 184.1) and hexosylceramide (HexCer (d18:1/16:0), 4.3 min, m/z: 682.2 > 264.2). Detection and analysis were controlled by Waters MassLynx software version 4.1. Calibration curves were prepared for every experiment.

effect against hNAAA [1]: no effect | h-liver microsomes % compound remaining at 1 h ([2]; 1 h): 80% | half-life at 4.6 μM ([2]; pH 7.4, read-out: h-liver microsomal stability t1/2): > 1 h
Compound: CCCCCNC(=O)n1cc(-c2ccc(F)cc2C2CCN(C)CC2)oc1=O [Compound 32b, 5-[4-Fluoro-2-(1-methyl-4-piperidyl)phenyl]-2-oxo-N-pentyl-oxazole-3-carboxamide]
Cer (d18:0/16:0) level ([3]; 10 μM, time course up to 6 h): increased | Cer (d18:1/16:0) level ([3]; 10 μM, time course up to 6 h): increased | HexCer (d18:1/16:0) level ([3]; 10 μM, time course up to 6 h): No major variations | SM (d18:1/16:0) level ([3]; 10 μM, time course up to 6 h): No major variations | So levels ([3]; 10 μM, time course up to 6 h): decreased | Cer (d18:0/16:0) level ([3]; 3 h incubation, 1-10 μM): accumulation | Cer (d18:1/16:0) level ([3]; 3 h incubation, 1-10 μM): accumulation | HexCer (d18:1/16:0) level ([3]; 3 h incubation, 1-10 μM): no major variations | SM (d18:1/16:0) level ([3]; 3 h incubation, 1-10 μM): no major variations | So levels ([3]; 3 h incubation, 1-10 μM): decrease
